{
  "source": "paper PMC8877822",
  "about": "“Interrogation of the Structure–Activity Relationship of a Lipophilic Nitroaromatic Prodrug Series Designed for Cancer Gene Therapy Applications” (Pharmaceuticals, 2022)",
  "key": {"[1]": {"test_system": "mixed H1299 xenograft containing 28% NfsA_Ec cells and 72% WT cells", "assay": "Tumor growth delay assay, mixed H1299 xenograft", "type": "in vivo, mice", "settings": "single i.p. dose: PR-104 388 µmol/kg; 1-P 1330 µmol/kg; 2-P 750 µmol/kg; 6-P 1330 µmol/kg", "procedure": "These ratios were broadly similar to those observed in HCT116 cells (Figure 2). A mixed H1299 xenograft model containing a minority percentage (28 ± 3.3%) of NfsA_Ec-expressing cells was used in order to rank the efficacy of the prodrugs in vivo. A model such as this necessitates the presence of a robust bystander effect to achieve a tumor growth delay. Tumor-bearing mice were administered a single intraperitoneal dose of prodrugs 1-P, 2-P, and 6-P at the H1299 tumor-bearing MTD. PR-104 was administered at 388 µmol/kg, the human equivalent dose (HED) in mice that provides a plasma AUCfree of PR-104A (38 µM-h) that equates to the human Q3W MTD of 1100 mg/m^2 [22].\nAn estimated starting dose was determined from related compounds. Animals were promptly euthanized if body weight loss exceeded 20% or if there were clinical signs of severe morbidity. The MTD was defined as the highest dose, at which all animals survived (death rate < 1/6) with no unacceptable morbidity, and where the next dose increment had caused at least one death. Tumors were inoculated onto the flanks of NIH-III nude mice by subcutaneous injection of 10^7 H1299 cells. Tumor-bearing mice were randomized to treatment groups (n = 5 mice per group) when tumors reached treatment size (300–350 mm^3) and injected with a single intraperitoneal dose of pre-prodrug. Tumor size and body weights were measured regularly. Tumor volume was calculated as π(Lxw^2)/6, where L is the major axis and w is the perpendicular minor axis. Animals were euthanized when the tumor volume had increased fourfold relative to pre-treatment volume (RTV4, survival endpoint) or if body weight loss exceeded 20% of the pre-treatment value. Kaplan–Meier plots were constructed, and median time to endpoint was calculated. Treatment efficacy was assessed by comparing the median survival time with untreated animals using the Log-rank test p-test (Sigmaplot version 11.0).\nFigure 5 In vivo efficacy of the three lead pre-prodrug compounds in a mixed H1299 xenograft containing 28% NfsA_Ec cells and 72% WT cells. (A) Tumor growth and (B) survival analysis of mice bearing 250 mm^3 H1299 tumors treated with a single intraperitoneal dose of prodrug on day 0. N = 5 animals per group. Control = PBS, PR-104 = 388 µmol/kg; 1-P = 1330 μmol/kg; 2-P = 750 μmol/kg; and 6-P = 1330 μmol/kg. Survival endpoint was 4× start volume (RTV4)."}, "[2]": {"test_system": "SiHa xenografts", "assay": "Tumor excision assay, clonogenic cell kill of SiHa xenografts", "type": "in vivo, mice", "settings": "18 h after treatment, PR-104 380 µmol/kg i.p., 6-P 1330 µmol/kg i.p.", "procedure": "The sensitivity of four cancer cell lines to prodrug 6 was determined under aerobic or anoxic conditions using an anti-proliferative IC50 assay. […] We also evaluated the hypoxic activity of 6-P versus PR-104 in vivo using a SiHa xenograft model (Figure 6B).\nWhen tumors reached treatment size (>400 mm^3), mice were treated with drug by a single intraperitoneal injection of pre-prodrug or vehicle. Mice treated with ionizing radiation were exposed to 10 Gray prior to drug treatment, using a cobalt-60 source from an Eldorado G unit. Animals were euthanized 18 h after drug treatment, and tumors were excised and homogenized using sterile scissors until a fine mince was obtained. Following enzymatic dissociation (2.5 mg/mL pronase, 1 mg/mL collagenase, and 0.2 mg/mL DNAase in αMEM + 10% FBS + 1% P/S, 1 mL per 50 mg), cells were plated at concentrations of 10^2–10^5 cells per 60 mm dish and grown for 10 days before colonies were stained with methylene blue (2 g/L in 50% aqueous alcohol). Colonies containing >50 cells were counted as clonogenic survivors. From these values, plating efficiency (colonies/cells plated), number of clonogens per gram of tumor tissue (plating efficiency × total cells), and log cell kill relative to vehicle treated controls (log clonogens per gram) were calculated. Statistical analysis was undertaken using Holm–Sidak’s one-way ANOVA (Sigmaplot version 11.0).\n(A) In vitro anti-proliferative activity of 6 in various cancer cell lines under aerobic and anoxic conditions. IC50 values were determined as the concentration of drug required to inhibit cell growth by 50% of untreated controls following 4 h drug exposure and five days regrowth (mean ±SEM of three or more independent determinations). (B) Clonogenic cell kill of SiHa xenografts 18 h after treatment with hypoxia activated prodrugs PR-104 (380 µmol/kg, i.p.) or 6-P (1330 µmol/kg, i.p.) with or without 10 Gy radiation."}, "[3]": {"settings": "cited from earlier work"}, "[4]": {"assay": "LogD7.4 by low-volume octanol/PBS shake-flask method", "type": "physicochemical", "settings": "n-octanol/PBS; octanol-water partition coefficient, shake-flask method at pH 7.4", "procedure": "Distribution ratios (LogD7.4) were determined by a low-volume octanol/PBS shake-flask method. Briefly, saturated solutions of octanol and PBS were prepared by mixing equal volumes of n-octanol and PBS (pH 7.4) before being left for three days. The octanol and PBS phases were then carefully separated and left to stand for at least 24 h. Stock solutions (0.1–0.5 mM) of each compound were prepared in octanol saturated with PBS. The stock solutions were diluted with octanol saturated with PBS containing and inter-assay control (acridone) to a final compound concentration of 50 μM. Aliquots (450 μL) were then taken in triplicate, and 450 μL of PBS saturated with octanol was added into amber tubes. The tubes were then sealed in parafilm and rotated for 90 min at 30 rpm to equilibrate. After centrifugation (15,000× g, 5 min, 20°C) the octanol and PBS phases were separated into different tubes and the octanol phase diluted with methanol (1:5 v/v). Both phases were analyzed by HPLC (diode-array detector at 364 ± 10 nm) by injecting 50 μL of the PBS phase and 15 μL of the diluted octanol phase. The results were then expressed as the log ratio of the peak areas obtained from the octanol and PBS phases corrected for dilution and injection volume."}, "[5]": {"test_system": "100% HCT116 AKR1C3 MCLs", "assay": "3D multicellular layer (MCL) assay, 100% HCT116 AKR1C3", "type": "cell-based, human", "settings": "10 µM prodrug, five hours", "procedure": "Similar to the 3D NfsA_Ec screen, increased lipophilicity also tracked with increased LCK in 100% AKR1C3-expressing MCLs (R = 0.78, R^2 = 0.61). […] These three lead compounds were taken forward into in vivo studies.\nMulticellular layers (MCLs) were grown, and bystander effect assays were performed as previously reported.\nFigure 4 Lipophilic structure–activity relationship for AKR1C3 in three dimensions. (A) Plating efficiency in 100% HCT116 WT and 100% HCT116 AKR1C3 MCLs exposed to 10 µM prodrug for five hours before dissociation and plating to determine clonogenic survival. (B) Correlation between Log cell kill and LogD7.4. R = 0.78, R^2 = 0.61. Log cell kill = Log CS (control)–Log CS (treated), where CS is the number of clonogenic survivors per MCL."}, "[6]": {"test_system": "H1299 WT cells", "assay": "Anti-proliferative IC50 assay, H1299 WT cells", "type": "cell-based", "settings": "Homo sapiens, NCI-H1299, 4 hour drug exposure, regrowth for five days", "procedure": "(§1) The anti-proliferative IC50 was determined as the concentration of prodrug required for 50% inhibition of cell growth, following drug exposure for four hours, then five days regrowth in the absence of drug. Assays were performed under oxic or anoxic conditions as described previously, the latter by using a 5% H2/palladium catalyst scrubbed Bactron anaerobic chamber (Sheldon Manufacturing, Cornelius, OR, USA) to achieve severe anoxia (<10 ppm O2 gas phase) during prodrug exposure.\n(§2) Supplementary Table S2. In vitro anti-proliferative activity of the three lead prodrug compounds in H1299 cells expressing E. coli NfsA. IC50 values were determined as the concentration of drug required to inhibit cell growth by 50% of untreated controls following 4 hour drug exposure, with washing and regrowth for five days.\n(§3) Compound WT NfsA_Ec Ratio"}, "[7]": {"test_system": "H1299 cells expressing E. coli NfsA", "assay": "Anti-proliferative IC50 assay, H1299 cells expressing E. coli NfsA", "type": "cell-based", "procedure": "as §1, §2, §3"}, "[8]": {"molecular_target": "T1, purified His6-tagged NfsA_Ec (Escherichia coli, UniProt P17117)", "T1 construct": "His6; made in house", "T1 sequence (P17117 1-240)": "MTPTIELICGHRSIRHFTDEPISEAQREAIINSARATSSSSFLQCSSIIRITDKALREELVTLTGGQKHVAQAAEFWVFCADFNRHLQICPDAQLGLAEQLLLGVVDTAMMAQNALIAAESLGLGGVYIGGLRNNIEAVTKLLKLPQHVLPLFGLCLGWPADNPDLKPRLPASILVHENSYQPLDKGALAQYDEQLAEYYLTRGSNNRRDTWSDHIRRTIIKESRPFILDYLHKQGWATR", "assay": "Steady-state kinetics of reduction by purified NfsA_Ec", "type": "biochemical, E. coli", "settings": "apparent, measured at 250 µM NADPH", "text": "(§4) We next sought to characterize the NfsA_Ec-mediated conversion of lead prodrug 6 in steady-state kinetics assays using purified His6-tagged NfsA_Ec. […] We therefore conducted a preliminary assessment of whether alternative bacterial NTR enzymes might hold promise for further GDEPT improvements.\nSupplementary Table S3. Steady-state kinetic parameters* for reduction of compound 6 and PR-104A by NfsA_Ec.\nCompound Km (µM) kcat (s-1) kcat/Km (mM-1 s-1)\n* Apparent kinetic parameters, measured at 250 µM NADPH\n# As previously reported by\nNfsA_Ec was purified as a His6-tagged recombinant protein as previously described. Kinetics assays were performed in 60 µl in UVettes (Eppendorf), using the 2 mm light path length. Reactions contained 10 mM Tris-Cl (pH 7.0), 4% DMSO, 0.25 mM NADPH and varying concentrations of PR - 104A or compound 6. Reactions were initiated by addition of 6 µl enzyme and changes in absorbance were measured for 20 s (during linearity). For calculation of Km and kcat, substrate concentrations were varied from ~0.2 x Km to 5 x Km. Molar extinction coefficients of 4,800 or 6,000 M-1 cm-1 were used for compound 6 and PR-104A, respectively. Non-linear regression analysis and Michaelis-Menten curve fitting was performed using Sigmaplot 10.0 (Systat Software Inc.)."}, "[9]": {"test_system": "47 different NTR candidates", "assay": "GFP-SOS (DNA damage) response in E. coli SOS-R4 reporter strains expressing nitroreductase candidates", "type": "cell-based", "settings": "20 µM, six-hour exposure, library of E. coli reporter cells", "text": "as §4\nSupplementary Figure S2. Identification of alternative nitroreductases able to activate compound 6. Bar graph displaying the fold-induction of GFP in the DNA-damage responsive E. coli reporter strain SOS-R4, following six-hour exposure to 20 µM of compound 6, compared with unchallenged replicates. Individual strains expressed nitroreductase candidates derived from different bacteria, identified by a two-letter suffix as explained in the Materials and Methods. The background SOS response induced by compound 6 in an empty plasmid control strain is indicated by the dashed line. […]\nThe GFP-SOS response was determined in SOS-R4 [16] by inoculating 200 μl aliquots of LBASG (lysogeny broth supplemented with 100 μgml-1 ampicillin, 50 μgml-1 spectinomycin and 0.2% glucose (w/v)) with selected SOS-R4 nitroreductase-over-expressing strains and incubating overnight at 30 °C, 200 rpm. […] Control and challenge plates were incubated at 30 °C, 200 rpm for 6 h, at which point OD600 and GFP fluorescence (excitation 490 nm/ emission 503 nm) were measured on an Enspire™ 2300 Multilabel Reader (Perkin Elmer, Waltham, MA). […]"}},
  "data": [
    {"smiles": "CS(=O)(=O)OCCN(CCBr)c1c(C(=O)NCCOP(=O)(O)O)cc([N+](=O)[O-])cc1[N+](=O)[O-]", "note": "[PR-104, 2-[(2-bromoethyl)-2,4-dinitro-6-[[[2-(phosphonooxy)ethyl]amino]carbonyl]anilino]ethyl methanesulfonate, reference compound]", "values": [
      {"measurement": "Tumor growth delay (median time to RTV4) compared to untreated controls", "setting": "[1]", "value": 33, "unit": "%"},
      {"measurement": "Log cell kill, in combination with radiotherapy", "setting": "[2]; 10 Gy radiation", "value": 3.72},
      {"measurement": "Log cell kill, single agent", "setting": "[2]", "value": 1.38},
      {"measurement": "Human Q3W MTD", "setting": "[3]", "value": 1100, "unit": "mg/m^2"}
    ]},
    {"smiles": "CCS(=O)(=O)c1cc([N+](=O)[O-])c(C(=O)N(C)CCO)cc1N(CCBr)CCBr", "note": "[Compound 6, 5-(Bis(2-bromoethyl)amino)-N-(2-hydroxyethyl)-N-methyl-4-(ethylsulfonyl)-2-nitrobenzamide]", "values": [
      {"measurement": "logD at 90 min", "setting": "[4]", "value": 1.6},
      {"measurement": "Log cell kill (LCK)", "setting": "[5]", "value": "≤ 0.11"},
      {"measurement": "IC50", "setting": "[6]", "value": "222 ± 39", "unit": "µM"},
      {"measurement": "IC50", "setting": "[7]; Escherichia coli, NCI-H1299, H1299 NfsA_Ec, 4 hour drug exposure, regrowth for five days", "value": "0.47 ± 0.1", "unit": "µM"},
      {"measurement": "WT:NfsA_Ec IC50 ratio", "setting": "[7]; H1299 WT vs H1299 NfsA_Ec", "value": 472, "unit": "fold"},
      {"measurement": "kcat", "setting": "[8]", "value": "5.5 ± 0.3", "unit": "s⁻¹"},
      {"measurement": "Activation of the SOS (DNA damage repair) response", "setting": "[9]", "value": "broadly activated by members of both the NfsA and NfsB nitroreductase families"}
    ]}
  ]
}
